Measurements reported in publication PMC6337594 (2018).

How the values were obtained:
[1] = tested on: CMA (DNA, G4) TAGGGAGGGTAGGGAGGGT; assay: gel mobility shift; details: 100 mM K+; 40 µM CMA, 80 µM compound
[2] = tested on: biotinylated Tel48 (DNA, G4) TTAGGGTTAGGGTTAGGGTTAGGGTTAGGGTTAGGGTTAGGGTTAGGG; assay: bio-layer interferometry, kinetic; details: 100 mM K+; 10 mM Tris, 25 °C; two-site model, Kb = ka/kd; immobilised Tel48
[3] = tested on: Tel48 (DNA, G4) TTAGGGTTAGGGTTAGGGTTAGGGTTAGGGTTAGGGTTAGGGTTAGGG; assay: CD melting; details: 100 mM K+; 10 mM Tris-HCl pH 7.5; compound concentration not stated
[4] = tested on: LD12 (DNA, duplex) GCGCAATTGCGC; assay: fluorescence enhancement; pre-stained gel; details: 100 mM K+; 15 µM H33258, 15 µM LD12
[5] = tested on: Tel48 (DNA, G4) TTAGGGTTAGGGTTAGGGTTAGGGTTAGGGTTAGGGTTAGGGTTAGGG; assay: CD, ligand-induced G4 formation; details: no K+; Tris buffer, 25 °C; 4 µM Tel48, 8 µM compound

Row | SMILES | binding [1] | Kb [2] [M⁻¹] | dTm [3] | binding [4] | binding [5]
1 | C[n+]1ccnc(/C=C/c2ccc3[nH]c4ccc(/C=C/c5c[n+](C)ccn5)cc4c3c2)c1 | yes | 529000 | – | – | –
2 | CN1CCN(c2ccc3nc(-c4ccc5nc(-c6ccc(O)cc6)[nH]c5c4)[nH]c3c2)CC1 | – | – | ~ 4 °C | yes | –
3 | CN(C)c1ccc(Nc2c3ccc(NC(=O)CCN4CCCC4)cc3nc3cc(NC(=O)CCN4CCCC4)ccc23)cc1 | yes | 9.84e+06 | – | – | yes
4 | NCCOc1cc(C(=O)Nc2cc(OCCN)c3ccccc3n2)nc(C(=O)Nc2cc(OCCN)c3ccccc3n2)c1 | – | – | ~ 2 °C | – | yes
5 | C[n+]1ccccc1/C=C/c1ccc2[nH]c3ccc(/C=C/c4cccc[n+]4C)cc3c2c1 | yes | 2.38e+06 | – | – | yes
6 | C[n+]1ccc(-c2c3nc(c(-c4cc[n+](C)cc4)c4ccc([nH]4)c(-c4cc[n+](C)cc4)c4nc(c(-c5cc[n+](C)cc5)c5ccc2[nH]5)C=C4)C=C3)cc1 | yes | 1.55e+07 | ~ 10 °C | – | yes
